Reference: ChEMBL document CHEMBL1147629, “Beyond U0126. Dianion chemistry leading to the rapid synthesis of a series of potent MEK inhibitors” (Bioorg Med Chem Lett, 2004)

Legend:
[1] = molecular target: T1, Dual specificity mitogen-activated protein kinase kinase 1 (Homo sapiens, UniProt Q02750); assay: Inhibitory potency against mitogen activated protein kinase kinase 1
Target sequence in this assay (Q02750 whole entry): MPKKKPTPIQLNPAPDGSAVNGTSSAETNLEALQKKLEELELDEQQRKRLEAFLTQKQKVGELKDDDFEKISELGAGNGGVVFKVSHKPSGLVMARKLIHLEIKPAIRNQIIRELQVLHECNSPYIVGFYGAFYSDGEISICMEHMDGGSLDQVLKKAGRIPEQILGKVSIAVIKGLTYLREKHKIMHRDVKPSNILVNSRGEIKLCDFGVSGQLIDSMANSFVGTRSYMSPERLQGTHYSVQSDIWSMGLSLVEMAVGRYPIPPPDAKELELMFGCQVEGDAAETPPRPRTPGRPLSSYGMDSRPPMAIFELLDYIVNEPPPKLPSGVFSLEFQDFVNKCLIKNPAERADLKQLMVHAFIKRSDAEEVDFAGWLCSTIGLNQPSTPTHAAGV

COS-7 [2] = assay: Inhibitory concentration against AP-1 transcription in COS-7 cells; conditions: Chlorocebus aethiops
[3] = molecular target: T2, Dual specificity mitogen-activated protein kinase kinase 3 (Homo sapiens, UniProt P46734); assay: Inhibitory potency against MAP kinase kinase 3 (MKK3); format: functional
T2 sequence (P46734 whole entry): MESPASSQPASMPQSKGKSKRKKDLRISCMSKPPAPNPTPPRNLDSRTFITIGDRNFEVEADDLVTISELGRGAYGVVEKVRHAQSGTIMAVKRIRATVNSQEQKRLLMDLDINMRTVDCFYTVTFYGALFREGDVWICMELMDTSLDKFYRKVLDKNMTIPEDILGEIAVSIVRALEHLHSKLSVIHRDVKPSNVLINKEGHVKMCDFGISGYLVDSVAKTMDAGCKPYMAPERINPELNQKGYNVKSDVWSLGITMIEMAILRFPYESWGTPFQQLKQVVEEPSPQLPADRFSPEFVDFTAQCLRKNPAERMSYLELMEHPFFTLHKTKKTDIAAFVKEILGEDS

[4] = Inhibitory potency against Mitogen activated protein kinase kinase 4; format: functional
Mus musculus = assay: In vivo effective dose against TPA-induced ear edema in mouse upon intraperitoneal administration; format: functional; conditions: ip
COS-7 [5] = tested on: COS-7
[6] = molecular target: T1, Dual specificity mitogen-activated protein kinase kinase 1; assay: Inhibitory potency against mitogen activated protein kinase kinase 1 at 10 uM
Target sequence in this assay (Q02750 whole entry, looked up): as the sequence (Q02750 whole entry) above

IC50 [1] | Compound | IC50 (COS-7 [2]) | also measured
0.076 µM | N#C/C(=C(/N)Sc1ccccc1N)c1cccc(C(O)c2ccc3ccccc3c2)c1 (stereo not drawn) | 3.25 µM | –
0.017 µM | N#C/C(=C(/N)Sc1ccccc1N)c1cccc(C(O)c2cccc([N+](=O)[O-])c2)c1 (stereo not drawn) | 1.6 µM | –
0.013 µM | N#C/C(=C(/N)Sc1ccccc1N)c1cccc(C(O)c2cccc(C#N)c2)c1 (stereo not drawn) | 1.08 µM | –
0.025 µM | N#C/C(=C(/N)Sc1ccccc1N)c1cccc(C(O)c2ccc3c(c2)OCCO3)c1 (stereo not drawn) | 2.1 µM | –
0.008 µM | N#C/C(=C(/N)Sc1ccccc1N)c1cccc(C(O)c2ccc([N+](=O)[O-])cc2[N+](=O)[O-])c1 (stereo not drawn) | 0.3 µM | –
0.183 µM | CC(O)c1cccc(/C(C#N)=C(\N)Sc2ccccc2N)c1 (stereo not drawn) | 66.7 µM | –
0.33 µM | C[n+]1ccc(C(O)c2cccc(/C(C#N)=C(\N)Sc3ccccc3N)c2)cc1 (stereo not drawn) | 50 µM | –
0.057 µM | N#C/C(=C(/N)Sc1ccccc1N)c1cccc(C(O)c2ccc(C(F)(F)F)cc2)c1 (stereo not drawn) | 3.97 µM | –
0.025 µM | N#C/C(=C(/N)Sc1ccccc1O)c1cccc(C(O)c2cccc([N+](=O)[O-])c2)c1 (stereo not drawn) | 3.22 µM | –
0.014 µM | COC(=O)c1ccc(C(O)c2cccc(/C(C#N)=C(\N)Sc3ccccc3N)c2)cc1 (stereo not drawn) | 0.29 µM | –
0.047 µM | N#C/C(=C(/N)Sc1ccccc1N)c1cccc(C(O)c2cccc3ccccc23)c1 (stereo not drawn) | 2.59 µM | –
0.053 µM | N#C/C(=C(/N)Sc1ccccc1N)c1cccc(C(O)c2cccc(C(F)(F)F)c2)c1 (stereo not drawn) | 5.7 µM | –
0.008 µM | N#C/C(=C(/N)Sc1ccccc1N)c1cccc(C(O)c2ccc([N+](=O)[O-])cc2)c1 (stereo not drawn) | 0.3 µM | –
0.053 µM | N#C/C(=C(/N)Sc1ccccc1)c1cccc(C(O)c2ccc(C#N)cc2)c1 (stereo not drawn) | 1.2 µM | –
0.007 µM | N#C/C(=C(/N)Sc1ccccc1N)c1cccc(C(O)c2ccc(C#N)cc2)c1 (stereo not drawn) | 0.32 µM | –
0.017 µM | N#C/C(=C(/N)Sc1ccccc1N)c1cccc(C(O)c2ccsc2)c1 (stereo not drawn) | 2.4 µM | –
0.017 µM | N#C/C(=C(/N)Sc1ccccc1N)c1cccc(C(O)c2cccs2)c1 (stereo not drawn) | 2.22 µM | –

Further lines, the compound ahead of its results:

Compound | IC50 [1] | IC50 (COS-7 [2]) | also measured
N#C/C(=C(/N)Sc1ccccc1N)c1cccc(Cc2ccccc2)c1 | – | 3.2 µM | –
N#C/C(=C(/N)Sc1ccccc1N)c1cccc(C(O)c2ccncc2)c1 (stereo not drawn) | – | 1.4 µM | IC50 [3]: > 1 µM; IC50 [4]: > 1 µM; ED50 (Mus musculus): 5 mg/kg
N#C/C(=C(/N)Sc1ccccc1N)c1cccc(C(O)c2ccc(-c3nnn(C(c4ccccc4)(c4ccccc4)c4ccccc4)n3)cc2)c1 (stereo not drawn) | 0.255 µM | 6.88 µM | –
N#C/C(=C(/N)Sc1ccccc1N)c1cccc(C(O)c2ccoc2)c1 (stereo not drawn) | – | 7.02 µM | –
N#C/C(=C(/N)Sc1ccccc1N)c1cccc(Oc2ccccc2)c1 | – | 3.03 µM | –
Cc1cccc(C(O)c2cccc(/C(C#N)=C(\N)Sc3ccccc3N)c2)c1 (stereo not drawn) | – | 2.4 µM | –
Cc1ccc(C(O)c2cccc(/C(C#N)=C(\N)Sc3ccccc3N)c2)cc1 (stereo not drawn) | – | 3 µM | –
N#C/C(=C(/N)Sc1ccccc1N)c1cccc(C(O)c2ccco2)c1 (stereo not drawn) | – | 12.2 µM | –
N#C/C(=C(/N)Sc1ccccc1O)c1cccc(C(O)c2ccc(C#N)cc2)c1 (stereo not drawn) | – | 0.64 µM | –
N#C/C(=C(/N)Sc1ccccc1N)c1cccc(C(O)C2CCCCC2)c1 (stereo not drawn) | 0.056 µM | 4.51 µM | –
N#C/C(=C(/N)Sc1ccccc1N)c1cccc(C(O)(c2ccccc2)c2ccccc2)c1 | 2.22 µM | – | IC50 (COS-7 [5]): Not Active
N#C/C(=C(/N)Sc1ccccc1N)c1cccc(C(O)c2cccnc2)c1 (stereo not drawn) | – | 2.72 µM | –
Cc1ccccc1C(O)c1cccc(/C(C#N)=C(\N)Sc2ccc(N)cc2)c1 (stereo not drawn) | – | 3.67 µM | –
N#CC(=C(N)Sc1ccccc1N)c1ccccc1 | 0.14 µM | – | –
COc1ccccc1S/C(N)=C(\C#N)c1cccc(C(O)c2ccc(C#N)cc2)c1 (stereo not drawn) | – | – | IC50 (COS-7 [5]): Not Active
N#C/C(=C(/N)Sc1ccccc1N)c1cccc(C(O)Cc2ccccc2)c1 (stereo not drawn) | – | 19.9 µM | –

Compound | IC50 [1] | IC50 (COS-7 [2]) | also measured
N#C/C(=C(/N)Sc1ccccc1N)c1ccc(C(=O)c2ccccc2)cc1 | – | 3.13 µM | –
N#C/C(=C(/N)Sc1ccc(N)cc1)c1cccc(Cc2ccccc2)c1 | – | 38.8 µM | –
N#C/C(=C(/N)Sc1ccc(N)cc1)c1cccc(C(O)c2ccccc2)c1 (stereo not drawn) | – | 10.7 µM | –
N#CC(=C(/N)Sc1ccccc1N)/C(C#N)=C(\N)Sc1ccccc1N | – | 1 µM | –
Cc1cccc(C(O)c2cccc(/C(C#N)=C(\N)Sc3ccc(N)cc3)c2)c1 (stereo not drawn) | – | – | IC50 (COS-7 [5]): Not Active
Cc1ccccc1C(O)c1cccc(/C(C#N)=C(\N)Sc2ccccc2N)c1 (stereo not drawn) | – | 2.69 µM | –
CC(O)(c1ccccc1)c1cccc(/C(C#N)=C(\N)Sc2ccccc2N)c1 (stereo not drawn) | – | – | IC50 (COS-7 [5]): Not Active
N#C/C(=C(/N)Sc1ccccc1N)c1cccc(C(O)c2ccccc2)c1 (stereo not drawn) | – | 2.07 µM | –
Cc1ccc(C(O)c2cccc(/C(C#N)=C(\N)Sc3ccc(N)cc3)c2)cc1 (stereo not drawn) | – | – | IC50 (COS-7 [5]): Not Active
CN(C(=O)c1cccc(/C(C#N)=C(\N)Sc2ccccc2N)c1)c1ccccc1 | 4.01 µM | – | –
N#C/C(=C(/N)Sc1ccc(N)cc1)c1cccc(C(O)c2ccc(C#N)cc2)c1 (stereo not drawn) | 0.053 µM | – | –
CN(C(=O)c1cccc(/C(C#N)=C(\N)Sc2ccc(N)cc2)c1)c1ccccc1 | – | – | inhibition [6]: 45%
CC(C)(O)c1cccc(/C(C#N)=C(\N)Sc2ccccc2N)c1 | 0.34 µM | 40 µM | –
N#C/C(=C(/N)Sc1ccccc1N)c1cccc(C(O)c2ccccn2)c1 (stereo not drawn) | – | 11.8 µM | –
N#C/C(=C(/N)Sc1ccccc1N)c1cccc(C(O)c2c(F)c(F)c(F)c(F)c2F)c1 (stereo not drawn) | 0.044 µM | – | –
N#C/C(=C(/N)Sc1ccccc1N)c1cccc(C(=O)c2ccccc2)c1 | – | 6.17 µM | –
